Tests used:
N-cadherin = assay: In vitro ε-cleavage assay, membranes from embryonic fibroblast cultures (WT / PS1 P264L knock-in study); format: biochemical, mouse; settings: FIG. 13A lanes 1 and 2
Procedure: In vitro γ-secretase-like ε-cleavage assay. Cells were washed in PBS, resuspended in 1 ml of 4° C. hypotonic buffer (10 mM MOPS, pH 7.0, 10 mM KCl) and homogenized on ice. A post-nuclear supernatant was prepared by centrifugation at 1000×g for 15 minutes at 4° C. Crude membranes were isolated from the post-nuclear supernatant by centrifugation at 16,000×g for 40 minutes at 4° C. The membranes were then resuspended in […] of assay buffer (150 mM sodium citrate, pH 6.4, 1× Complete protease inhibitor cocktail), and incubated at 37° C. for 2 hours. Samples were either analyzed directly by WB or separated into pellet (P100) and supernatant (S100) fractions by ultracentrifugation for 1 hour at 100,000×g at 4° C. The S100 and P100 fractions were then analyzed by WB.
To investigate the consequences of FAD mutations in a physiologically relevant system in the absence of PS1 overexpression, the ε-cleavage of N-cadherin was examined in two independent embryonic fibroblast clones derived from a gene-targeted (knock-in) mouse homozygous for the human PS1 FAD mutation P264L (Siman et al. (2000) J. Neurosci. 20:8717-8726). Expression of the knock-in mutant PS1 allele is under the control of the endogenous PS1 gene. These models are distinct from overexpressing transgenic models because the mutant gene is expressed at normal levels, similar to those observed in WT models (FIG. 13, panel d). […]

[1] = tested on: E-cadherin/catenin cytoskeletal complex; assay: Ionomycin-induced CAJ disassembly in A431 cells, subcellular fractionation and Western blot; format: cell-based, human; settings: 30 minutes preincubation with L-685,458, then ionomycin
Procedure: Subcellular fractionation. Confluent A431 cells (one 100 mm dish) were rinsed and scraped with 4° C. phosphate-buffered saline (PBS). Cells were then placed into 1 ml of buffer A (20 mM Tris-HCl [pH 7.5], 0.25 M sucrose, 10 mM EGTA, 2 mM EDTA, 1× Complete protease inhibitor cocktail, Roche), passed through a 27 gauge needle 10 times, and the obtained cell lysate was centrifuged at 500×g for 10 min at 4° C. The supernatant was then centrifuged at 120,000×g for 45 min at 4° C. to separate the cytosolic and crude membrane fractions. The pellet (crude membrane fraction) was washed twice with buffer A and resuspended by sonication in […] of buffer A containing 1% Triton X-100. The suspension was incubated at 4° C. for 30 min and then centrifuged at 120,000×g for 45 min at 4° C. to separate the membrane and Triton X-100-insoluble fractions. The pellet (Triton X-100-insoluble fraction) was washed twice with buffer A and solubilized by sonication in RIPA buffer. […] of proteins from the different fraction were analyzed by SDS-PAGE.
In stable cell-cell adhesion, the E-cadherin/β-catenin complex of the CAJ is anchored to the actin cytoskeleton via catenin and this association is manifested by the insolubility of the complex components in Triton X-100 (Baki et al., (2001)). Induction of apoptosis or calcium influx disrupts cadherin-mediated cell-cell adhesion by cleaving cadherin and disassembling the CAJ complexes. To determine whether the γ-secretase cleavage of E-cadherin is involved in the CAJ disassembly, calcium influx was induced with ionomycin (10 μM) in A431 cells preincubated for 30 minutes in the absence or presence of the γ-secretase inhibitor L-685,458. Cell extracts were fractionated, and analyzed on Western blots with antibodies against cytoplasmic E-cadherin C36 or β- and α-catenins. […] In addition, L-685,458 delayed the ionomycin-induced decrease of cytoskeletal β-catenin and α-catenin and inhibited their release to the soluble cytosol.

CC(C)C[C@H](NC(=O)[C@H](Cc1ccccc1)C[C@@H](O)[C@H](Cc1ccccc1)NC(=O)OC(C)(C)C)C(=O)N[C@@H](Cc1ccccc1)C(N)=O [L-685,458]
production of N-Cad/CTF2 (N-cadherin): sensitive
ionomycin-induced decrease of cytoskeletal β-catenin and α-catenin [1]: delayed
ionomycin-induced degradation of the full length E-cadherin [1]: partially inhibited
ionomycin-induced metabolism of cytoskeletal E-Cad/CTF1 [1]: blocked
production of soluble cytosolic E-Cad/CTF2 [1]: abolished
release of β-catenin and α-catenin to the soluble cytosol [1]: inhibited

Reference: patent US7884067B2, “Peptides derived from cadherin and methods of use thereof” (Mount Sinai School of Medicine of New York University, priority 2001, dated 2011)
